Test results: patent publication US8410153B2, “Naphthalene isoxazoline invertebrate pest control agents” (E.I. du Pont de Nemours and Company, priority 2007, dated 2013)

Tests used:
Assay type in all cases: in vivo
[1] = tested on: western flower thrips (Frankliniella occidentalis); assay: Test E: control of western flower thrips on Soleil bean plant, contact and/or systemic; details: held 6 days
Method in brief: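 5–7-day-old Soleil bean plants were sprayed at 250 or 50 ppm in 10% acetone/90% water with 300 ppm X-77 surfactant, three replicates. After drying 1 h, 22–27 adult thrips were added per unit. Mortality and plant damage were rated after 6 days at 25 °C and 45–55% RH.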

[2] = tested on: diamondback moth (Plutella xylostella); assay: Test A: control of diamondback moth on radish plant, foliar spray; details: sprayed at 50 ppm, held 6 days
Method in brief: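 Radish plants 12–14 days old, pre-infested with about 50 neonate larvae, sprayed at 50 ppm in 10% acetone/water with 300 ppm X-77 surfactant; three replicates. After 6 days at 25° C and 70% RH, feeding damage was scored visually and mortality counted.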

[3] = tested on: fall armyworm (Spodoptera frugiperda); assay: Test B: control of fall armyworm on corn (maize) plant, foliar spray; details: sprayed at 50 ppm
Method in brief: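 4-5-day-old corn plants pre-infested with 10-15 1-day-old larvae on insect diet, then sprayed with compound at 50 ppm in 10% acetone/90% water with 300 ppm surfactant, three replicates. Held 6 days at 25° C, 70% RH; feeding damage assessed visually and mortality rated.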

Measured: levels of control efficacy (20% or less feeding damage or 80% or more mortality)

CCCNC(=O)CNC(=O)c1ccc(C2=NOC(c3cc(Cl)cc(C(F)(F)F)c3)(C(F)(F)F)C2)c2ccccc12 (centres unmarked) [Compound 117]
very good to excellent: [1]; sprayed at 50 ppm | [1]; sprayed at 250 ppm | [2] | [3]

O=C(CNC(=O)c1ccc(C2=NOC(c3cc(Br)cc(C(F)(F)F)c3)(C(F)(F)F)C2)c2ccccc12)NCC(F)(F)F (racemic) [Compound 52]
very good to excellent: [1]; sprayed at 50 ppm | [1]; sprayed at 250 ppm | [2] | [3]

CC(C)(NC(=O)c1ccc(C2=NOC(c3cc(Cl)cc(Cl)c3)(C(F)(F)F)C2)c2ccccc12)C(=O)NCC(F)(F)F (centres unmarked) [Compound 4]
very good to excellent: [1]; sprayed at 50 ppm | [1]; sprayed at 250 ppm | [2] | [3]

CC(O)CNC(=O)c1ccc(C2=NOC(c3cc(C(F)(F)F)cc(C(F)(F)F)c3)(C(F)(F)F)C2)c2ccccc12 (centres unmarked) [Compound 67]
very good to excellent: [1]; sprayed at 50 ppm | [1]; sprayed at 250 ppm | [2] | [3]

CC(C)(C)CNC(=O)CNC(=O)c1ccc(C2=NOC(c3cc(Cl)cc(C(F)(F)F)c3)(C(F)(F)F)C2)c2ccccc12 (centres unmarked) [Compound 120]
very good to excellent: [1]; sprayed at 50 ppm | [1]; sprayed at 250 ppm | [2] | [3]

CCNC(=O)C(C)NC(=O)c1ccc(C2=NOC(c3cc(Br)cc(C(F)(F)F)c3)(C(F)(F)F)C2)c2ccccc12 (mixture of isomers) [Compound 142]
very good to excellent: [1]; sprayed at 50 ppm | [2] | [3]

C[S+]([O-])CCNC(=O)c1ccc(C2=NOC(c3cc(Cl)cc(Cl)c3)(C(F)(F)F)C2)c2ccccc12 (centres unmarked) [Compound 18]
very good to excellent: [1]; sprayed at 50 ppm | [1]; sprayed at 250 ppm | [2] | [3]

O=C(CNC(=O)c1ccc(C2=NOC(c3cc(F)cc(C(F)(F)F)c3)(C(F)(F)F)C2)c2ccccc12)NCC(F)(F)F (racemic) [Compound 135]
very good to excellent: [1]; sprayed at 250 ppm | [2] | [3]

CSCCNC(=O)c1ccc(C2=NOC(c3cc(Br)cc(Br)c3)(C(F)(F)F)C2)c2ccccc12 (centres unmarked) [Compound 21]
very good to excellent: [1]; sprayed at 50 ppm | [1]; sprayed at 250 ppm | [2] | [3]

C[S+]([O-])CCNC(=O)c1ccc(C2=NOC(c3cc(C(F)(F)F)cc(C(F)(F)F)c3)(C(F)(F)F)C2)c2ccccc12 (centres unmarked) [Compound 79]
very good to excellent: [1]; sprayed at 50 ppm | [1]; sprayed at 250 ppm | [2] | [3]

O=C(CNC(=O)c1ccc(C2=NOC(c3cc(Cl)cc(Cl)c3)(C(F)(F)F)C2)c2ccccc12)NCC(F)(F)F (centres unmarked) [Compound 1]
very good to excellent: [1]; sprayed at 50 ppm | [1]; sprayed at 250 ppm | [2] | [3]

CC(NC(=O)c1ccc(C2=NOC(c3cc(C(F)(F)F)cc(C(F)(F)F)c3)(C(F)(F)F)C2)c2ccccc12)C(=O)NCC(F)(F)F (centres unmarked) [Compound 85]
very good to excellent: [1]; sprayed at 50 ppm | [1]; sprayed at 250 ppm | [2] | [3]

CS(=O)(=O)CCNC(=O)c1ccc(C2=NOC(c3cc(Cl)cc(Cl)c3)(C(F)(F)F)C2)c2ccccc12 (centres unmarked) [Compound 20]
very good to excellent: [1]; sprayed at 50 ppm | [1]; sprayed at 250 ppm | [2] | [3]

CSCCCNC(=O)c1ccc(C2=NOC(c3cc(Cl)cc(Cl)c3)(C(F)(F)F)C2)c2ccccc12 (centres unmarked) [Compound 22]
very good to excellent: [1]; sprayed at 50 ppm | [1]; sprayed at 250 ppm | [2] | [3]

O=C(CNC(=O)c1ccc(C2=NOC(c3cc(C(F)(F)F)cc(C(F)(F)F)c3)(C(F)(F)F)C2)c2ccccc12)NCC(F)(F)F (racemic) [Compound 37]
very good to excellent: [1]; sprayed at 50 ppm | [1]; sprayed at 250 ppm | [2] | [3]

CCNC(=O)CNC(=O)c1ccc(C2=NOC(c3cc(Cl)cc(Cl)c3)(C(F)(F)F)C2)c2ccccc12 (centres unmarked) [Compound 8]
very good to excellent: [1]; sprayed at 50 ppm | [1]; sprayed at 250 ppm | [2] | [3]

CC(NC(=O)c1ccc(C2=NOC(c3cc(C(F)(F)F)cc(C(F)(F)F)c3)(C(F)(F)F)C2)c2ccccc12)C(=O)NCC(C)(C)C (mixture of isomers) [Compound 124]
very good to excellent: [1]; sprayed at 250 ppm | [2] | [3]

CC(NC(=O)c1ccc(C2=NOC(c3cc(Br)cc(C(F)(F)F)c3)(C(F)(F)F)C2)c2ccccc12)C(=O)NCC(F)(F)F (mixture of isomers) [Compound 140]
very good to excellent: [1]; sprayed at 50 ppm | [2] | [3]
